Experimental data published in paper PMC10150366, “Discovery of an In Vivo Chemical Probe for BCL6 Inhibition by Optimization of Tricyclic Quinolinones” (Journal of Medicinal Chemistry, 2023).
Like-named read-outs stand apart in the source and are kept apart here.

Key:
CHRM1 [1] = target: T1, CHRM1 (Homo sapiens, UniProt P11229); assay: SAFETYscan Calcium Flux CHRM1 Agonist; type: cell-based
T1 sequence (P11229 1-460): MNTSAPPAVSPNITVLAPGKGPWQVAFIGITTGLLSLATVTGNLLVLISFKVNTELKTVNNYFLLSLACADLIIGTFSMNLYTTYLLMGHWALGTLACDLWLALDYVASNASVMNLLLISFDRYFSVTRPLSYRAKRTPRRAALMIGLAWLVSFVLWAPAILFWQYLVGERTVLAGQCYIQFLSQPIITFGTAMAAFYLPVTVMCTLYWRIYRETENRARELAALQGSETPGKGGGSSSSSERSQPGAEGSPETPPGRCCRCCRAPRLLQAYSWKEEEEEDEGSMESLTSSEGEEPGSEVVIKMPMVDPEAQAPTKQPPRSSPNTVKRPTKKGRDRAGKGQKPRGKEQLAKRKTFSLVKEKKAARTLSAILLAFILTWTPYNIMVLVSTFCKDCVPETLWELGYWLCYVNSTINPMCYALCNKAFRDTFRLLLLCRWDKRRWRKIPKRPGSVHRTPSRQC
Excerpt: (§1) Supplement jm3c00155_si_002.xlsx, sheet "SAFETYScan" | column: RC50 (uM); Max Response

CHRM1 [2] = target: T1, CHRM1; assay: SAFETYscan Calcium Flux CHRM1 Antagonist; type: cell-based
Excerpt: as §1

SU-DHL-4 = assay: 14-day cell proliferation assay, SU-DHL-4; type: cell-based; conditions: Homo sapiens, 14-day assay
Excerpt: DMSO final concentration.
After a short centrifugation the
(1st emission filter) / 450-80 nm (2nd emission filter). The % inhibition at each test concentration was […]
sigmoidal four-parameter logistic fit equation.
2.3 Cell proliferation assay
Aldrich) supplemented with 10% FBS (Gibco). Compounds were initially dispensed into 96-well U-bottom […]
transferred onto the cells.
Assay plates containing cells
(Beckman Coulter). The volume of medium containing 2500 cells in the control well was calculated and this volume of cells was transferred from every well of the assay plates to the corresponding well of the fresh plates containing compound. After 14 days, CellTiter Glo reagent (Promega) was added to the medium in each well of the assay plate at a ratio of 1:2, mixed on a plate shaker, then incubated at room temperature for 10 minutes. Luminescence was measured using an Envision plate reader (Perkin Elmer) and the relative luminescence at each compound concentration, compared to DMSO alone, was calculated. GI50 were determined using a 4-parameter curve fit in Dotmatics (Bishops Stortford, UK).

HTR1B = HTR1B (Homo sapiens, UniProt P28222); assay: SAFETYscan cAMP HTR1B Agonist; type: cell-based
Sequence of HTR1B (P28222 whole entry): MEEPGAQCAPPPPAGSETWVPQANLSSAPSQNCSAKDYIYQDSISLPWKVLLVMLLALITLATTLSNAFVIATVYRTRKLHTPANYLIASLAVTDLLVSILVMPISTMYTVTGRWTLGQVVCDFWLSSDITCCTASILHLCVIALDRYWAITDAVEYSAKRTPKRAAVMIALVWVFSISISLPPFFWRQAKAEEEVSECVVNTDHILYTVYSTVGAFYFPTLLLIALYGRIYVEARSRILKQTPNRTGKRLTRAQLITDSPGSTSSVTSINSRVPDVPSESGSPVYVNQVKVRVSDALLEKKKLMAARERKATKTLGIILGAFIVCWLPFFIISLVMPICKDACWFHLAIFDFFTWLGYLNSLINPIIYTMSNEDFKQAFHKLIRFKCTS
Excerpt: Supplement jm3c00155_si_002.xlsx, sheet "SAFETYScan" | column: RC50 (uM); Hill; Max Response

KvLQT1/minK = KvLQT1/minK (Homo sapiens, UniProt P51787); assay: SAFETYscan Ion Channel KvLQT1/minK Opener; type: cell-based
Excerpt: as §1

NET = NET (Homo sapiens, UniProt P23975); assay: SAFETYscan Transporter NET Blocker; type: cell-based
Sequence of NET (P23975 whole entry): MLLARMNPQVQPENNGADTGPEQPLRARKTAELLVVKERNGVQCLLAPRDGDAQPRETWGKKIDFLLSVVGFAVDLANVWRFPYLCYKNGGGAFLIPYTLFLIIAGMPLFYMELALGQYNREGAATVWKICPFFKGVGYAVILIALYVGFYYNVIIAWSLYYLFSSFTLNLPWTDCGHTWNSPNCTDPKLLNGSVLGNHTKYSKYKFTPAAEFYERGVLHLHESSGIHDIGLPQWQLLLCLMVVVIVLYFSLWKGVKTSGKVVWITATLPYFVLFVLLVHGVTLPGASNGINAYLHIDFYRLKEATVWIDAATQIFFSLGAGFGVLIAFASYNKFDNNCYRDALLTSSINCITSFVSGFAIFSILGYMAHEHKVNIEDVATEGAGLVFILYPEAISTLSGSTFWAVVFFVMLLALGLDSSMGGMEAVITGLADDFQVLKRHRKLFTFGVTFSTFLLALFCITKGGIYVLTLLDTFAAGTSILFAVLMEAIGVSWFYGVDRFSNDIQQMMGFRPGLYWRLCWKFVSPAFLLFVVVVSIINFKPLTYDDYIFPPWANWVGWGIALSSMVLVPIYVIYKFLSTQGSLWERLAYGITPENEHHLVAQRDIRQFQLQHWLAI
Excerpt: as §1

HTR1A = target: T2, HTR1A (Homo sapiens, UniProt P08908); assay: SAFETYscan cAMP HTR1A Antagonist; type: cell-based
T2 sequence (P08908 1-422): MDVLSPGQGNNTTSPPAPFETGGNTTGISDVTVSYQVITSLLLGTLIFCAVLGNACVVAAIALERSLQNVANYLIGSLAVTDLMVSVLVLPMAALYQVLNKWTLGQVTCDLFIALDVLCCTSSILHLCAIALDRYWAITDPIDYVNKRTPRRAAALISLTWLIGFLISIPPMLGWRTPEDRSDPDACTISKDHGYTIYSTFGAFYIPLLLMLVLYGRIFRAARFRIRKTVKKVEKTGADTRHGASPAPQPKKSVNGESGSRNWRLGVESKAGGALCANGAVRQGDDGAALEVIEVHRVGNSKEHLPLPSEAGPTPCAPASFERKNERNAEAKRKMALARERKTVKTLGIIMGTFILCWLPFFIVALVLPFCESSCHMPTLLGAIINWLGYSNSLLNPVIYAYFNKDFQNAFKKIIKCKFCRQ
Excerpt: as §1

human BCL6 BTB domain = human BCL6 BTB domain (Homo sapiens, UniProt P41182); assay: BCL6 TR-FRET assay; type: binding
Experimental: 1. Supplementary experimental: protein production, purification and crystallography 1.1 BCL6 constructs used for assays and crystallography […]
cleavage site. For the TR-FRET assay, the Trx-6His-HRV3C-BCL6 protein construct was used without cleaving the tag, as a 6His was needed to bind to the anti-6His-Terbium antibody. […]
For both plasmid constructs described above, transformed BL21-AI E. coli cells were grown in LB media […]
Expression was carried out at 18 °C for 18 hours. Cells were harvested by centrifugation (5500 g for 30 minutes at 4 °C) and stored at -80 °C.
Cells were re-suspended in a buffer composed of 20 mM Tris pH 8, 250 mM NaCl, 1 mM MgCl2, 0.5 mM […]
lysed by sonication followed by centrifugation at 21,000 g for 45 minutes at 4 °C. […]
ResourceQ and gel filtration using a HiLoad 26/60 Superdex75 column in a buffer containing 20 mM HEPES […]
The final protein was assessed for purity and molar mass by SDS-PAGE and high-resolution mass spectrometry, respectively.
For the uncleaved Trx-6His-HRV3C-BCL6 protein construct to be used in TR-FRET, the protein was directly eluted from the HisTrap FF column without HRV-3C treatment, and submitted to Superdex75 gel filtration […]
Test compounds in DMSO or DMSO alone […]
concentration in 0.7% v/v DMSO final. […]

HTR2B = HTR2B (Homo sapiens, UniProt P41595); assay: SAFETYscan Calcium Flux HTR2B Antagonist; type: cell-based
Sequence of HTR2B (P41595 whole entry): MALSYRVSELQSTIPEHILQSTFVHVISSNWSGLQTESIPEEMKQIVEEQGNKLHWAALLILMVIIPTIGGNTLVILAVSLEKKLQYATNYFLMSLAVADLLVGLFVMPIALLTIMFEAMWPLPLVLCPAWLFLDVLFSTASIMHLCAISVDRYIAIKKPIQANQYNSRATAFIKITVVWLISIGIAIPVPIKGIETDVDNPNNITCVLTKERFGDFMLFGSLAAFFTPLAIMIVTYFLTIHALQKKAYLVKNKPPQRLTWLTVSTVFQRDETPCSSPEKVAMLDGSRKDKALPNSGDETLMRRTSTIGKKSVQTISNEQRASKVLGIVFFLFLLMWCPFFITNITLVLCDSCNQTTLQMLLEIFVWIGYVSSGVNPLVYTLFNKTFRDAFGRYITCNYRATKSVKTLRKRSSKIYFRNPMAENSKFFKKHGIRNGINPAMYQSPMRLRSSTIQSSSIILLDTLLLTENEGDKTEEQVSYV
Excerpt: as §1

nAChR(a4/b2) = nAChR(a4/b2) (Homo sapiens, UniProt P17787+P43681); assay: SAFETYscan Ion Channel nAChR(a4/b2) Blocker; type: cell-based
Sequence of nAChR(a4/b2) (P43681 29-627 limits assumed): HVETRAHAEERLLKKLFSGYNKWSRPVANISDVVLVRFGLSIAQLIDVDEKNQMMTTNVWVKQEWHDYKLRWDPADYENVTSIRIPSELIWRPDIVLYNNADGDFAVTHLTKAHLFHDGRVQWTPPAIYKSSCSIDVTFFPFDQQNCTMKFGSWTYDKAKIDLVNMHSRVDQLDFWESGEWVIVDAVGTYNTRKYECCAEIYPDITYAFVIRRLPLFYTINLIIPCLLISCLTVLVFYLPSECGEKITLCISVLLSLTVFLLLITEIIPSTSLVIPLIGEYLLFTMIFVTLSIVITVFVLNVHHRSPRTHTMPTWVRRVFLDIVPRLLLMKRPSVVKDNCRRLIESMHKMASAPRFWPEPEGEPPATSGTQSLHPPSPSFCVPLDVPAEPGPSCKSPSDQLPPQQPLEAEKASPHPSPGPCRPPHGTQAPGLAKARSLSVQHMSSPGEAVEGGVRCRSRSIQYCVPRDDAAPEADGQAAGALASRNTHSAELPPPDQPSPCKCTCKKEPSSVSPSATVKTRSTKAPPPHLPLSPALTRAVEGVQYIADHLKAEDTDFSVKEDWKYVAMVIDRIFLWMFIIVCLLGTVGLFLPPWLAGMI
Sequence of nAChR(a4/b2) (P17787 26-502): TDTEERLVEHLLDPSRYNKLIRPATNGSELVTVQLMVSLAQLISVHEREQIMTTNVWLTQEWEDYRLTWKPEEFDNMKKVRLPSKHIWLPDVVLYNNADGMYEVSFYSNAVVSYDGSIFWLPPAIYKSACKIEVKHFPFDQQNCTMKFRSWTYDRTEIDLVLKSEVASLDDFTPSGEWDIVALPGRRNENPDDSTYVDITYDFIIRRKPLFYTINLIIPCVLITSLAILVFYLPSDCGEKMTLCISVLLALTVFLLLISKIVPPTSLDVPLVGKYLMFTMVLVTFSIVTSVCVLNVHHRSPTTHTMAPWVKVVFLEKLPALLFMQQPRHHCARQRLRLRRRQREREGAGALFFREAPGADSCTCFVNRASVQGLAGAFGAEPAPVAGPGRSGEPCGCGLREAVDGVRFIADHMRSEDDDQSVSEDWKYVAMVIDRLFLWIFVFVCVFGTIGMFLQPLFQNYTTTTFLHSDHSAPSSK
Excerpt: as §1

DRD1 = DRD1 (Homo sapiens, UniProt P21728); assay: SAFETYscan cAMP DRD1 Agonist; type: cell-based
Sequence of DRD1 (P21728 whole entry): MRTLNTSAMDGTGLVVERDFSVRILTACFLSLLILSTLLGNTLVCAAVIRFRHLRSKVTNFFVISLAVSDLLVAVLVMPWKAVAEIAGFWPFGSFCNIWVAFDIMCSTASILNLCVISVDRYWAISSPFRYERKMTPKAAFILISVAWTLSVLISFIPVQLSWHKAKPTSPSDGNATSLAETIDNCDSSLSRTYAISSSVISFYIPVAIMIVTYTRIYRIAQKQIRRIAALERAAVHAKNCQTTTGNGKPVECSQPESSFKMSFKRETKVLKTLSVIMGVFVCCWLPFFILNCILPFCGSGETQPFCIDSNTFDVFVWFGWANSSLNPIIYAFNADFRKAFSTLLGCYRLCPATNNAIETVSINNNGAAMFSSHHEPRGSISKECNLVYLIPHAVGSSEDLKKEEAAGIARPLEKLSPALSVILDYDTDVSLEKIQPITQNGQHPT
Excerpt: as §1

OPRK1 = OPRK1 (Homo sapiens, UniProt P41145); assay: SAFETYscan cAMP OPRK1 Antagonist; type: cell-based
Sequence of OPRK1 (P41145 whole entry): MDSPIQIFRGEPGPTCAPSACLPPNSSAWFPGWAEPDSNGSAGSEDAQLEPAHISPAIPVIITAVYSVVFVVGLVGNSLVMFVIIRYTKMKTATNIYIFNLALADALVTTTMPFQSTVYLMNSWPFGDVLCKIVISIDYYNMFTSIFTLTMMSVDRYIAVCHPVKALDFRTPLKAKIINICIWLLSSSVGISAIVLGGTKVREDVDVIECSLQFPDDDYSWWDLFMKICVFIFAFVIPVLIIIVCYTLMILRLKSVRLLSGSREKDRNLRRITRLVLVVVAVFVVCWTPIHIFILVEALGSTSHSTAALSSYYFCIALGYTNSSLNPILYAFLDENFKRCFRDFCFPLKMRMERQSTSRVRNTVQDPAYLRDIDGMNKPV
Excerpt: as §1

## Cn1c(=O)c2c(c3cc(Nc4ccnc(F)c4Cl)ccc31)N[C@@H](C1CC1)C(F)(F)CO2 [compound 17, (S)-10-((3-chloro-2-fluoropyridin-4-yl)amino)-2-cyclopropyl-3,3-difluoro-7-methyl-1,2,3,4-tetrahydro-[1,4]oxazepino[2,3-c]quinolin-6(7H)-one]
CHRM1 [1]
  EC50: > 10 µM
CHRM1 [1]; CHRM1, Calcium Flux, Agonist, read-out: Max Response
  Emax: 1.44%
CHRM1 [2]
  IC50: > 10 µM
CHRM1 [2]; CHRM1, Calcium Flux, Antagonist, read-out: Max Response
  Emax: 1.21%
SU-DHL-4
  GI50: 1.38 µM
HTR1B
  EC50: 9.13 µM
HTR1B; HTR1B, cAMP, Agonist
  Hill: 0.76
HTR1B; HTR1B, cAMP, Agonist, read-out: Max Response
  Emax: 50.3%
KvLQT1/minK; read-out: Max Response
  Emax: 1.07%
KvLQT1/minK; read-out: RC50 (EC50)
  EC50: > 10 µM
NET
  IC50: > 10 µM
NET; NET, Transporter, Blocker, read-out: Max Response
  Emax: 0%
HTR1A
  IC50: > 10 µM
HTR1A; HTR1A, cAMP, Antagonist, read-out: Max Response
  Emax: 0%
Human BCL6 BTB domain; Table S1
  BCL6 TR-FRET pIC50 mean: 8.2095
Human BCL6 BTB domain; Table S1, read-out: BCL6 TR-FRET IC90 Geometric Mean
  IC90: 0.0567 µM
Human BCL6 BTB domain; geometric mean of at least three replicates, read-out: BCL6 TR-FRET IC50
  IC50: 0.006 µM
Human BCL6 BTB domain; supplement, read-out: BCL6 TR-FRET IC50 Geometric Mean
  IC50: 0.0062 µM
HTR2B
  IC50: > 10 µM
HTR2B; HTR2B, Calcium Flux, Antagonist, read-out: Max Response
  Emax: 0%
nAChR(a4/b2)
  IC50: > 10 µM
nAChR(a4/b2); nAChR(a4/b2), Ion Channel, Blocker, read-out: Max Response
  Emax: 0%
DRD1
  EC50: > 10 µM
DRD1; DRD1, cAMP, Agonist, read-out: Max Response
  Emax: 0%
OPRK1
  IC50: > 10 µM
OPRK1; OPRK1, cAMP, Antagonist, read-out: Max Response
  Emax: 0.95%
